Assay results published in ChEMBL document CHEMBL1132809, “Synthesis and evaluation of 4-deacetoxyagosterol A as an MDR-modulator” (2000).

Legend:
[1] = test system: KB 3-1; assay: Cytotoxicity was evaluated against KB-C2 cells at 0.1 ug/mL; No cytotoxicity; assay type: functional, cell-based; conditions: Homo sapiens
[2] = test system: KB 3-1; assay: Cytotoxicity was evaluated against KB CV-60 cells at 0.1 ug/mL; No cytotoxicity; assay type: functional, cell-based; conditions: Homo sapiens
[3] = test system: KB-CV60; assay: The compound was evaluated to Inhibit the growth of KB CV-60 cells at 10 ug/mL in the presence of vincristine (0.1 ug/ML)
[4] = test system: KB-C2; assay: The compound was evaluated to Inhibit the growth of KB-C2 cells at 1 ug/mL n the presence of colchicine (0.1 ug/ML)
[5] = test system: KB 3-1; assay: Cytotoxicity was evaluated against KB-3-1 cells at 3 ug/mL; assay type: functional; conditions: Homo sapiens
[6] = test system: KB 3-1; assay: Cytotoxicity was evaluated against KB-3-1 cells at 10 ug/mL; assay type: functional; conditions: Homo sapiens
[7] = test system: KB-C2; assay: The compound was evaluated to Inhibit the growth of KB-C2 cells at 3 ug/mL n the presence of colchicine (0.1 ug/ML)
[8] = test system: KB-CV60; assay: The compound was evaluated to Inhibit the growth of KB CV-60 cells at 1 ug/mL in the presence of vincristine (0.1 ug/ML)
[9] = test system: KB-CV60; assay: The compound was evaluated to Inhibit the growth of KB CV-60 cells at 3 ug/mL in the presence of vincristine (0.1 ug/ML)
[10] = test system: KB-C2; assay: The compound was evaluated to Inhibit the growth of KB-C2 cells at 10 ug/mL in the presence of colchicine (0.1 ug/ML)

Row | SMILES | Cytotoxicity [1] | Cytotoxicity [2] | Inhibition [3] [%] | Inhibition [4] [%] | inhibition at 3 µg/mL [5] [%] | inhibition at 10 µg/mL [6] [%] | Inhibition [7] [%] | Inhibition [8] [%] | Inhibition [9] [%] | Inhibition [10] [%]
1 | COc1cc2c(c(OC)c1OC)-c1ccc(OC)c(=O)cc1[C@@H](NC(C)=O)CC2 | No cytotoxicity | No cytotoxicity | – | – | – | – | – | – | – | –
2 | CC(=O)O[C@H]1CC[C@@]2(C)[C@H](C1)[C@@H](OC(C)=O)C=C1[C@@H]2[C@H](O)C[C@]2(C)[C@@H]([C@H](C)CCCC(C)C)CC[C@@H]12 | – | – | 42 | 37 | 5 | 39 | 69 | 15 | 25 | 88
3 | CC(=O)O[C@H]1CC[C@@]2(C)[C@H](C1)[C@@H](OC(C)=O)C=C1[C@@H]2[C@H](O)C[C@]2(C)[C@@H]([C@H](C)[C@H](O)CCC(C)C)CC[C@@H]12 | – | – | 69 | 44 | 13 | 19 | 76 | 59 | 64 | 87
4 | CC[C@]1(O)C[C@H]2CN(CCc3c([nH]c4ccccc34)[C@@](C(=O)OC)(c3cc4c(cc3OC)N(C=O)[C@H]3[C@@](O)(C(=O)OC)[C@H](OC(C)=O)[C@]5(CC)C=CCN6CC[C@]43[C@@H]65)C2)C1 | No cytotoxicity | No cytotoxicity | – | – | – | – | – | – | – | –
5 | CC(=O)O[C@@H]1[C@@H]2[C@@H](OC(C)=O)C=C3[C@H]([C@H](O)C[C@]4(C)[C@@H]([C@H](C)[C@H](O)CCC(C)C)CC[C@@H]34)[C@@]2(C)CC[C@@H]1OC(C)=O [AGOSTEROL A] | – | – | 76 | 75 | – | 13 | 82 | 66 | 73 | 84
